Results on eight molecules are retold here after patent US20230227466A1, “SUBSTITUTED THIENOPYRIMIDINES THAT INTERACT WITH THE RAS SUPERFAMILY FOR THE TREATMENT OF CANCERS, INFLAMMATORY DISEASES, RASOPATHIES, AND FIBROTIC DISEASE” (SHY Therapeutics, LLC, priority 2020, published 2023).

In assay [1] the test system is ERK1/2 phosphorylation in Panc-1 cells. Nature of the assay: Western ERK1/2 cell-based phosphorylation assay. On the set-up: species or system human. The conditions noted are these: at 10 μM, values in brackets < > are activation %, not inhibition. The procedure: Cell lines: Human tumor-derived pancreatic cancer cell line Panc-1 was purchased from American Type Culture Collection and grown in complete DMEM-High Glucose, supplemented with penicillin (100 U/mL), streptomycin (100 μg/mL), and 10% heat-inactivated FBS at 37° C. in a humidified incubator with 5% CO2.
(§1) Method: Cells were plated at 350000 cells/well density in a 12-well plate, allowed 3 hours to adhere to the plate, then starved in the appropriate medium in the presence of 0.5% FBS overnight. The small molecules to be tested were added to the cells in the final concentration of 10 μM in the presence of 0.3% DMSO for 6 hours incubation at 37° C. For IC50 value determination, serial dilutions of compounds were added to cells under the same conditions. Next, cells were stimulated with 1.5 ng/ml EGF for 15 minutes then cells were lysed with lysis buffer containing 1% Triton X-100, EDTA, and Halt™ Protease & Phosphatase Inhibitor Cocktail (Thermo Scientific). Protein concentration was assessed by BCA protein assay (Thermo Scientific). Phosphorylation level of ERK1/2 was determined by western blot.
(§2) Western blot protocol: Equal amounts of protein (15-50 μg) were separated by SDS-PAGE and transferred to nitrocellulose membranes (Invitrogen by Thermo Fisher Scientific). The membrane was stained with Ponceau S Stain (Boston BioProducts) to verify uniform protein loading. Membranes were blocked with 10% milk and phosphorylation levels of ERK1/2 were assessed by incubating overnight at 4° C. with anti-phospho-p44/42 (Thr202/Tyr204) antibody (Cell Signaling) followed by HRP-conjugated secondary antibody (Jackson Immunoresearch, West Grove, Pa.). Bands were incubated in Amersham ECL Prime Western Blotting Detection Reagent (GE Healthcare) and visualized using the ChemiDoc MP imaging system (Bio-Rad). Protocol for Western AKT cell-based phosphorylation assay

In the next assay the target is Rac-1 (Homo sapiens, UniProt P63000). Kind of assay: Ras GTP binding domain inhibition assay (labeled-GTP competition, cell-free). More on the design: made in house. The text has this: (§3) This is a competitive binding assay. It involves the immobilization of a protein on solid phase, interaction with a small molecule drug candidate, and then competitive binding with a labeled native GTP or GDP ligand.
(§4) In theory, the assay is suitable for use with any GTP or GDP binding protein.
(§5) The following method was developed as specific assay for the following proteins: KRas wild type, KRas Q61H mutant, KRas G12C mutant, KRas G12D mutant, Rac-1, and Rho-A.
(§6) The small GTPases proteins: KRas wild type. KRas Q61H mutant, KRas G12C mutant, KRas G12D mutants, Rac-1, and Rho-A were expressed as His-tagged proteins. In addition, the Guanosine nucleotide Exchange Factor (GEF) Sos protein (residues 556-1049) was expressed as a His-tagged protein. In cells, the guanine nucleotide exchange factor Sos protein promotes activation of Ras proteins by stimulating an exchange of GDP for GTP. The inclusion of Sos to the Ras GTP binding domain inhibition assay may be considered as an alternative representation of physiological cellular conditions for evaluating the inhibitory activity of some of the tested small molecules.
(§7) For the assay, all purified small GTPases proteins were diluted in Buffer-I or Buffer-II to a final concentration of 10-30 μg/mL. 200 μL of each diluted protein was added to a nickel-coated 96-well plate and incubated overnight at 4° C. Then the protein solution was discarded and 200 μL of Buffer-I or Buffer-II was added to each well in the presence of 1% DMSO. Compounds to be tested were added to the protein-coated wells at final concentration of 20 μM, and incubated for 3 hours at room temperature with and without 10-30 μg/mL of Sos added to the final hour of the incubation. When performing IC50 measurements a serial dilution of all tested concentrations was added. Then Cy3-GTP or Cy5-GTP was added to each well to a final concentration of 100 nM. The labeled GTP was incubated for 45 minutes at room temperature. Following GTP incubation, wells were washed 3× in Buffer-I or Buffer-II and 200 μL of Buffer-I or Buffer-II was added to each well. Following washes, the amount of bound labeled-GTP was measured using a SpectraMax M3 (Molecular Devices).

In the next assay the target is KRas wild type (Homo sapiens, UniProt P01116). The description is as above. More on the design: made in house.
Source text: as §3, §4, §5, §6, §7

The target of the next assay is Rho-A (Homo sapiens, UniProt P61586). The description is as above. More on the design: made in house.
Source text: as §3, §4, §5, §6, §7

Assay [2] relates to Akt phosphorylation in Panc-1 cells. Kind of assay: Western AKT cell-based phosphorylation assay. More on the design: species or system human. The note with it: at 10 μM, values in brackets < > are activation %, not inhibition. The procedure:
Human Tumor-Derived Pancreatic Cancer Cell Line Panc-1 was Purchased from
American Type Culture Collection and grown in complete DMEM-High Glucose supplemented with penicillin (100 U/mL), streptomycin (100 μg/mL), and 10% heat-inactivated FBS at 37° C. in a humidified incubator with 5% CO2.
as §1, with “C.” for “C. For IC50 value determination, serial dilutions of compounds were added to cells under the same conditions.”, “Akt” for “ERK1/2”
as §2, with “Akt” for “ERK1/2”, “anti-phospho-Akt (Ser473)” for “anti-phospho-p44/42 (Thr202/Tyr204)”, “(Bio-Rad).” for “(Bio-Rad). Protocol for Western AKT cell-based phosphorylation assay”

[3] abbreviates: with SOS, read-out: Rac-1 + SOS: % inh.
Where [4] appears, read: without SOS, read-out: Rac-1: % inh.
The mark [5] stands for this setting: with SOS, read-out: KRas wild type + SOS: % inh.
The mark [6] stands for this setting: without SOS, read-out: KRas wild type: % inh.
Where [7] appears, read: with SOS, read-out: Rho-A + SOS: % inh.
[8] abbreviates: without SOS, read-out: Rho-A: % inh.

Where two headings read alike, the source gives them in different places.

For `CO[C@H]1CC[C@@H](Nc2nc(C(=O)Nc3ccccn3)nc3sccc23)C1` (racemic) [Compound 16, rac-4-(((1R,3S)-3-Methoxycyclopentyl)amino)-N-(pyridin-2-yl)thieno[2,3-d]pyrimidine-2-carboxamide], the “% inh of ERK1/2 phosphorylation in PANC-1” value in assay [1] is listed as 0 (0% inhibition). The inhibition at 20 µM on Rac-1 (setting [3]) is 0%; at Rac-1 (setting [4]), 1 to 25%; at KRas wild type (setting [5]), 0%; on KRas wild type (setting [6]), 1 to 25%; at Rho-A (setting [7]) it was 1 to 25%; on Rho-A (setting [8]) it was 0%. Also, the “% inh of AKT phosphorylation in PANC-1” value in assay [2] is 0 (0% inhibition).

For the molecule `CO[C@H]1CC[C@@H](Nc2nc(C(N)=O)nc3sc(-c4ccn(C(C)C)n4)cc23)C1` (racemic) [Compound 17, Rac-6-(1-isopropyl-1H-pyrazol-3-yl)-4-(((1R,3S)-3-methoxycyclopentyl)amino)thieno[2,3-d]pyrimidine-2-carboxamide], the “% inh of ERK1/2 phosphorylation in PANC-1” value in assay [1] is “A (1-25% inhibition)”. Also, the inhibition at 20 µM is 1 to 25% at Rac-1 (setting [3]); 0% on Rac-1 (setting [4]); 1 to 25% at KRas wild type (setting [5]); 1 to 25% at KRas wild type (setting [6]); 0% at Rho-A (setting [7]); 26 to 50% at Rho-A (setting [8]). The “% inh of AKT phosphorylation in PANC-1” value in assay [2] was 0 (0% inhibition).

Consider `CO[C@H]1CC[C@@H](Nc2nc(C(=O)N3CCCC3)nc3sccc23)C1` (racemic) [Compound 25, Rac-(4-(((1R,3S)-3-Methoxycyclopentyl)amino)thieno[2,3-d]pyrimidin-2-yl)(pyrrolidin-1-yl)methanone], for which the “% inh of ERK1/2 phosphorylation in PANC-1” value in assay [1] was 0 (0% inhibition). The inhibition at 20 µM at Rac-1 (setting [3]), at Rac-1 (setting [4]), on KRas wild type (setting [5]), at KRas wild type (setting [6]), on Rho-A (setting [7]) and at Rho-A (setting [8]) was 0% each time. In addition, the “% inh of AKT phosphorylation in PANC-1” value in assay [2] is recorded as 0 (0% inhibition).

Turning to `CO[C@@H]1CC[C@@H](Nc2nc(-c3nccn3C)nc3sc(-c4ccn(C(C)C)n4)c(C)c23)C1` (racemic) [Compound 33, rac-6-(1-Isopropyl-1H-pyrazol-3-yl)-N-((1R,3R)-3-methoxycyclopentyl)-5-methyl-2-(1-methyl-1H-imidazol-2-yl)thieno[2,3-d]pyrimidin-4-amine], in assay [1], the “% inh of ERK1/2 phosphorylation in PANC-1” value was “D (76-100% inhibition)”. Besides, the inhibition at 20 µM at Rac-1 (setting [3]) was 51 to 75%; on Rac-1 (setting [4]), 51 to 75%; on KRas wild type (setting [5]), 76 to 100%; on KRas wild type (setting [6]), 76 to 100%; on Rho-A (setting [7]), 76 to 100%; at Rho-A (setting [8]) it was 76 to 100%. The “% inh of AKT phosphorylation in PANC-1” value in assay [2] was 0 (0% inhibition).

For `COC1CCN(c2nc(-c3nccn3C)nc3sc(-c4ccn(C(C)C)n4)c(C)c23)C1` (racemic) [Compound 34, rac-6-(1-Isopropyl-1H-pyrazol-3-yl)-4-(3-methoxypyrrolidin-1-yl)-5-methyl-2-(1-methyl-1H-imidazol-2-yl)thieno[2,3-d]pyrimidine], the “% inh of ERK1/2 phosphorylation in PANC-1” value in assay [1] is “D (76-100% inhibition)”. Moreover, the inhibition at 20 µM at Rac-1 (setting [3]), at Rac-1 (setting [4]), at KRas wild type (setting [5]), on KRas wild type (setting [6]), on Rho-A (setting [7]) and on Rho-A (setting [8]) was 76 to 100% each time. Besides, the “% inh of AKT phosphorylation in PANC-1” value in assay [2] is 0 (0% inhibition).

In the case of `Cc1c(-c2ccn(C(C)C)n2)sc2nc(-c3nccn3C)nc(NC3CCOC3)c12` (racemic) [Compound 37, rac-6-(1-Isopropyl-1H-pyrazol-3-yl)-5-methyl-2-(1-methyl-1H-imidazol-2-yl)-N-(tetrahydrofuran-3-yl)thieno[2,3-d]pyrimidin-4-amine], the “% inh of ERK1/2 phosphorylation in PANC-1” value in assay [1] was 0 (0% inhibition). Also, the inhibition at 20 µM on Rac-1 (setting [3]), on Rac-1 (setting [4]), on KRas wild type (setting [5]), at KRas wild type (setting [6]), at Rho-A (setting [7]) and at Rho-A (setting [8]) was 76 to 100% throughout. The “% inh of AKT phosphorylation in PANC-1” value in assay [2] is on record as 0 (0% inhibition).

As to `COCC1CCN(c2nc(-c3nccn3C)nc3sc(-c4ccn(C(C)C)n4)c(C)c23)C1` (racemic) [Compound 38, rac-6-(1-Isopropyl-1H-pyrazol-3-yl)-4-(3-(methoxymethyl)pyrrolidin-1-yl)-5-methyl-2-(1-methyl-1H-imidazol-2-yl)thieno[2,3-d]pyrimidine], the “% inh of ERK1/2 phosphorylation in PANC-1” value in assay [1] is reported as “D (76-100% inhibition)”. The inhibition at 20 µM at Rac-1 (setting [3]), at Rac-1 (setting [4]), at KRas wild type (setting [5]), on KRas wild type (setting [6]), at Rho-A (setting [7]) and on Rho-A (setting [8]) was 76 to 100% in each case. Further, the “% inh of AKT phosphorylation in PANC-1” value in assay [2] is “B (26-50% inhibition)”.

`COC1CCCN(c2nc(-c3nccn3C)nc3sc(-c4ccn(C(C)C)n4)c(C)c23)C1` (racemic) [Compound 40, rac-6-(1-Isopropyl-1H-pyrazol-3-yl)-4-(3-methoxypiperidin-1-yl)-5-methyl-2-(1-methyl-1H-imidazol-2-yl)thieno[2,3-d]pyrimidine]: in assay [1], the “% inh of ERK1/2 phosphorylation in PANC-1” value is “D (76-100% inhibition)”. Also, the inhibition at 20 µM on Rac-1 (setting [3]) was in the range of 51 to 75%; at Rac-1 (setting [4]), 51 to 75%; on KRas wild type (setting [5]), 76 to 100%; on KRas wild type (setting [6]) it was 76 to 100%; on Rho-A (setting [7]) it was 76 to 100%; on Rho-A (setting [8]), 76 to 100%. Moreover, in assay [2], the “% inh of AKT phosphorylation in PANC-1” value is “D (76-100% inhibition)”.
